Test results as given in patent publication US20250388565A1, “ESTROGEN RECEPTOR ALPHA DEGRADERS AND METHODS OF USE THEREOF” (Relay Therapeutics, Inc., priority 2022, published 2025).

biological target: T1, ERα protein (HiBiT-tagged) in ESR1_HiBiT KI MCF7 cells (Homo sapiens, UniProt P03372); experiment: Nano Glo HiBiT Lytic Degradation Assay; format: cell-based; conditions: 6 hours with compound, 14-point dose response 1:3, bell-shape curve fit, half-maximal effect of first Hill model, read-out: MCF7 ESR1 HiBiT - (DC50)
T1 sequence (P03372 1-595): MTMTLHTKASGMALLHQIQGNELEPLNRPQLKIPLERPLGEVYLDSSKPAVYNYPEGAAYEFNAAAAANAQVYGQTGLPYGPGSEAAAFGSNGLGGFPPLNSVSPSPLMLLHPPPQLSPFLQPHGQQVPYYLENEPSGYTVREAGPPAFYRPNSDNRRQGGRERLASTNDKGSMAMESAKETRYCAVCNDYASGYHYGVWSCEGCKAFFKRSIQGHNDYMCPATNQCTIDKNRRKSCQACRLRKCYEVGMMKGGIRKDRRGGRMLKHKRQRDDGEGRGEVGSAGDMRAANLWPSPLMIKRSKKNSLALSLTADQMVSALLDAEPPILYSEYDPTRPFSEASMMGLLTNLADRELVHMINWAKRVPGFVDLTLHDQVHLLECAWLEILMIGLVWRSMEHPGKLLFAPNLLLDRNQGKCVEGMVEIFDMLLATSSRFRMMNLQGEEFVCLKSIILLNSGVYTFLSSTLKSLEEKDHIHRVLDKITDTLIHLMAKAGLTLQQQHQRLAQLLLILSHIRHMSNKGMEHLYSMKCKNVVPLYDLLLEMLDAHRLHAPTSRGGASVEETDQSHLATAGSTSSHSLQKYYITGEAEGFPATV
Protocol: Selected compounds of the present disclosure were tested in a Nano Glo HiBiT Lytic Degradation Assay to measure the level of ERα protein degradation in MCF7 cells.
Cell culture: ESR1_HiBiT KI MCF7 cells were maintained in growth media without antibiotics. Cells were maintained in exponential growth phase, between 40% and 90% confluency.
Cell seeding: Cells were counted using a Vi-Cell and seeded in a 384-well flat-bottom microplate (cell culture-treated) at 4000 cells/well in 25 μL of growth medium using a BioTek MultiFlo Multimode Dispenser. Plates were incubated for 24 h at 37° C., 5% CO2, >95% relative humidity.
Compound preparation: Compounds were screened as 14-point dose response curves 1:3 dilutions. DMSO is used as the vehicle control and all wells were normalized to the same final DMSO concentration (0.1% v/v). Compounds were dosed using an Echo Acoustic Liquid Handler, 25 nL of 1000× (10 mM top concentration) DMSO stock/well. Cells were incubated with compounds for 6 hours at 37° C., 5% CO2, >95% relative humidity. Each compound was run in duplicate.
Nano Glo HiBiT Lytic Degradation Assay: HiBiT-tagged ERα protein levels were quantified using a Nano Glo HiBiT Lytic Degradation Assay following the manufacturer's protocol. Briefly, the Nano-Glo® HiBiT Lytic Reagent was prepared by diluting the LgBiT Protein reagent (1:100) and the Nano-Glo® HiBiT Lytic Substrate (1:50) into Nano-Glo® HiBiT Lytic Buffer at room temperature. The 384-well microplate were equilibrated to room temperature and 25 μL of Nano-Glo® HiBiT Lytic Reagent was added to each well. Samples were mixed by placing the 384-well microplate on an orbital shaker for 10 minutes. Luminescence was measured using an EnVision 2105 Multimode Plate Reader.
Data processing and analysis: Background signal (wells containing growth medium without cells) was subtracted from individual relative light units (RLU) values and the resulting values were normalized to the DMSO control well values. Dose responses were analyzed with Genedata Screener® using a bell-shape curve fit and the concentrations corresponding to the half-maximal effect of the first Hill model were used as DC50 values.

Compared with O=C1CCC(N2Cc3cc(N4CCN(CC5CCN(c6ccc([C@H]7c8ccc(O)cc8CC[C@H]7C7CCCC7)cc6)CC5)CC4)ccc3C2=O)C(=O)N1 (single isomer, unassigned) [Compound I-53], O=C1CCC(N2Cc3cc(N4CCN(CC5CCN(c6ccc([C@@H]7c8ccc(O)cc8CC[C@@H]7C7CCC(F)(F)CC7)cc6)CC5)CC4)ccc3C2=O)C(=O)N1 (single isomer, unassigned) [Compound I-54] is 810-fold higher in DC50: 0.92 nM for the first, 742 nM for the second.

Going from O=C1CC[C@H](N2Cc3cc(N4CCN(CC5CCN(c6ccc([C@H]7c8ccc(O)cc8CC[C@H]7C7CCC(F)(F)CC7)cc6)CC5)CC4)ccc3C2=O)C(=O)N1 (single isomer, unassigned) [Compound I-55] to CC1(C)CCC([C@H]2CCc3cc(O)ccc3[C@H]2c2ccc(N3CCC(CN4CCN(c5ccc6c(c5)CN([C@H]5CCC(=O)NC5=O)C6=O)CC4)CC3)cc2)CC1 (single isomer, unassigned) [Compound I-105], the DC50 rises from 0.41 nM to 45.8 nM (110-fold).

First: O=C1CC[C@H](N2Cc3cc(N4CCN(CC5CCN(c6ccc([C@H]7c8ccc(O)cc8CO[C@H]7c7ccc(C(F)(F)F)cc7)cc6)CC5)CC4)ccc3C2=O)C(=O)N1 (single isomer, unassigned) [Compound I-56]
Second: O=C1CC[C@H](N2Cc3cc(N4CCN(CC5CCN(c6ccc([C@@H]7c8ccc(O)cc8CC[C@@H]7c7cccc(OC(F)(F)F)c7)cc6)CC5)CC4)ccc3C2=O)C(=O)N1 (single isomer, unassigned) [Compound I-109]
The DC50 of the first is 180-fold lower: 7.75 nM for the first, 1400 nM for the second.

First: O=C1CC[C@H](N2Cc3cc(N4CCN(CC5CCN(c6ccc([C@@H]7c8ccc(O)cc8CC[C@@H]7c7ccc8c(c7)CC8)cc6)CC5)CC4)ccc3C2=O)C(=O)N1 (single isomer, unassigned) [Compound I-57]
Second: O=C1CC[C@H](N2Cc3cc(N4CCN(CC5CCN(c6ccc([C@H]7c8ccc(O)cc8CC[C@H]7c7ccc8c(c7)CC8)cc6)CC5)CC4)ccc3C2=O)C(=O)N1 (single isomer, unassigned) [Compound I-58]
The DC50 of the first is 150-fold higher: 7 nM for the first, 0.048 nM for the second.

Going from O=C1CC[C@H](N2Cc3cc(N4CCN(CC5CCN(c6ccc([C@@H]7c8ccc(O)cc8CC[C@@H]7c7ccc8c(c7)CCCC8)cc6)CC5)CC4)ccc3C2=O)C(=O)N1 (single isomer, unassigned) [Compound I-59] to O=C1CC[C@H](N2Cc3cc(N4CCN(CC5CCN(c6ccc([C@H]7c8ccc(O)cc8CC[C@H]7c7ccc8c(c7)CCCC8)cc6)CC5)CC4)ccc3C2=O)C(=O)N1 (single isomer, unassigned) [Compound I-60], the DC50 falls from 906 nM to 1 nM (910-fold).

Compared with O=C1CC[C@H](N2Cc3cc(N4CCN(CC5CCN(c6ccc([C@H]7c8ccc(O)cc8CC[C@H]7c7cccc8c7CCCC8)cc6)CC5)CC4)ccc3C2=O)C(=O)N1 (single isomer, unassigned) [Compound I-61], O=C1CC[C@H](N2Cc3cc(N4CCN(CC5CCN(c6ccc([C@@H]7c8ccc(O)cc8CC[C@@H]7c7cccc8c7CCCC8)cc6)CC5)CC4)ccc3C2=O)C(=O)N1 (single isomer, unassigned) [Compound I-62] is lower in DC50: at least 10000 nM for the first, 2 nM for the second.

Compared with O=C1CCC(N2Cc3cc(N4CCN(CC5CCN(c6ccc([C@@H]7c8ccc(O)cc8CC[C@@H]7c7cccc8c7CC8)cc6)CC5)CC4)ccc3C2=O)C(=O)N1 (single isomer, unassigned) [Compound I-100], O=C1CCC(N2Cc3cc(N4CCN(CC5CCN(c6ccc([C@H]7c8ccc(O)cc8CC[C@H]7c7cccc8c7CC8)cc6)CC5)CC4)ccc3C2=O)C(=O)N1 (single isomer, unassigned) [Compound I-101] is 24-fold higher in DC50: 0.33 nM for the first, 8 nM for the second.

O=C1CC[C@H](N2Cc3cc(N4CCN(CC5CCN(c6ccc([C@H]7CCCc8cc(O)ccc87)cc6)CC5)CC4)ccc3C2=O)C(=O)N1 (single isomer, unassigned) [Compound I-102] and O=C1CC[C@H](N2Cc3cc(N4CCN(CC5CCN(c6ccc([C@@H]7CCCc8cc(O)ccc87)cc6)CC5)CC4)ccc3C2=O)C(=O)N1 (single isomer, unassigned) [Compound I-103] cannot be ordered by DC50: at least 10000 nM for the first, at least 10000 nM for the second.

Going from CC1(C)CCC([C@@H]2CCc3cc(O)ccc3[C@@H]2c2ccc(N3CCC(CN4CCN(c5ccc6c(c5)CN([C@H]5CCC(=O)NC5=O)C6=O)CC4)CC3)cc2)CC1 (single isomer, unassigned) [Compound I-106] to CC[C@H]1CCc2cc(O)ccc2[C@H]1c1ccc(N2CCC(CN3CCN(c4ccc5c(c4)CN([C@H]4CCC(=O)NC4=O)C5=O)CC3)CC2)cc1 (single isomer, unassigned) [Compound I-111], the DC50 falls from 1030 nM to 332 nM (3.1-fold).

Compared with O=C1CCC(N2Cc3cc(N4CCN(CC5CCN(c6ccc([C@@H]7c8ccc(O)cc8CC[C@@H]7c7cccnc7)cc6)CC5)CC4)ccc3C2=O)C(=O)N1 (single isomer, unassigned) [Compound I-107], O=C1CCC(N2Cc3cc(N4CCN(CC5CCN(c6ccc([C@H]7c8ccc(O)cc8CC[C@H]7c7cccnc7)cc6)CC5)CC4)ccc3C2=O)C(=O)N1 (single isomer, unassigned) [Compound I-108] is lower in DC50: at least 10000 nM for the first, 17.3 nM for the second.

O=C1CC[C@H](N2Cc3cc(N4CCN(CC5CCN(c6ccc([C@H]7c8ccc(O)cc8CC[C@H]7c7cccc(OC(F)(F)F)c7)cc6)CC5)CC4)ccc3C2=O)C(=O)N1 (single isomer, unassigned) [Compound I-110] and CC[C@@H]1CCc2cc(O)ccc2[C@@H]1c1ccc(N2CCC(CN3CCN(c4ccc5c(c4)CN([C@H]4CCC(=O)NC4=O)C5=O)CC3)CC2)cc1 (single isomer, unassigned) [Compound I-112] are within 1.5-fold of each other in DC50: 0.155 nM for the first, 0.14 nM for the second.

Compared with C[C@@H]1O[C@H](C2CCCCC2)[C@H](c2ccc(N3CCC(CN4CCN(c5ccc6c(c5)CN([C@H]5CCC(=O)NC5=O)C6=O)CC4)CC3)cc2)c2ccc(O)cc21 (single isomer, unassigned) [Compound I-205, (S)-3-(5-(4-((1-(4-((1*S,3*R,4*R)-3-cyclohexyl-7-hydroxy-1-methylisochroman-4-yl)phenyl)piperidin-4-yl)methyl)piperazin-1-yl)-1-oxoisoindolin-2-yl)piperidine-2,6-dione], CC(C)[C@@H]1OCc2cc(O)ccc2[C@@H]1c1ccc(N2CCC(CN3CCN(c4ccc5c(c4)CN([C@H]4CCC(=O)NC4=O)C5=O)CC3)CC2)cc1 (single isomer, unassigned) [Compound I-226] is 75-fold higher in DC50: 0.79 nM for the first, 59 nM for the second.

Compared with CC(C)C[C@@H]1OCc2cc(O)ccc2[C@@H]1c1ccc(N2CCC(CN3CCN(c4ccc5c(c4)CN([C@H]4CCC(=O)NC4=O)C5=O)CC3)CC2)cc1 (single isomer, unassigned) [Compound I-221], CC(C)C[C@@H]1OCc2cc(O)ccc2[C@H]1c1ccc(N2CCC(CN3CCN(c4ccc5c(c4)CN([C@H]4CCC(=O)NC4=O)C5=O)CC3)CC2)cc1 (single isomer, unassigned) [Compound I-222] is lower in DC50: at least 10000 nM for the first, 0.32 nM for the second.

First: CC(C)C[C@H]1OCc2cc(O)ccc2[C@@H]1c1ccc(N2CCC(CN3CCN(c4ccc5c(c4)CN([C@H]4CCC(=O)NC4=O)C5=O)CC3)CC2)cc1 (single isomer, unassigned) [Compound I-223]
Second: CC(C)C[C@H]1OCc2cc(O)ccc2[C@H]1c1ccc(N2CCC(CN3CCN(c4ccc5c(c4)CN([C@H]4CCC(=O)NC4=O)C5=O)CC3)CC2)cc1 (single isomer, unassigned) [Compound I-224]
The DC50 of the first is 21-fold higher: 10 nM for the first, 0.48 nM for the second.
